The results in this text go back to patent US10092551B2, “Spiro-thiazolones” (Hoffmann-La Roche Inc., priority 2014, dated 2018).

Chain of human V1a receptor (P37288 whole entry): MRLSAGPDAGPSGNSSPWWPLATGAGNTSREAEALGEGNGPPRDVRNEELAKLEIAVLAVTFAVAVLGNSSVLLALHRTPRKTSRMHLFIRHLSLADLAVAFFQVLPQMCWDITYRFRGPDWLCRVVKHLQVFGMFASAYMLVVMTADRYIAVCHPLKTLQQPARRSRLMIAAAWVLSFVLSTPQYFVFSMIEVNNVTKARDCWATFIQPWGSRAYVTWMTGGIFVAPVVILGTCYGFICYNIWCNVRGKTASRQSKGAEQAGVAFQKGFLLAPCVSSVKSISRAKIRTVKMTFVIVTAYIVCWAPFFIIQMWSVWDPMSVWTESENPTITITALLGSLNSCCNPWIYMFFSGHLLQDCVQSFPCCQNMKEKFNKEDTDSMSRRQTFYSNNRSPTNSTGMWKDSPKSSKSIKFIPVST

The target in the assay is human V1a receptor (Homo sapiens (Human), UniProt P37288). The experiment in a line: human V1a receptor binding studies (3H-Vasopressin, SPA beads). To be noted: membranes of HEK293 cells transiently transfected with human V1a receptor, Ki by Cheng-Prussoff. The method, boiled down:
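Membranes from HEK293 cells transiently expressing cloned human V1a receptor, bound on yttrium silicate SPA beads with 4 nM 3H-vasopressin (added stock) and serially diluted compound, 1 h at room temperature. Non-specific binding defined with cold vasopressin; IC50 by non-linear regression, Ki via Cheng-Prusoff.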
In the case of `[2H]C([2H])([2H])/C(=C1\SC(N2CCC3(CC2)OCc2ccccc23)=NC1=O)c1ccc(Cl)nc1` [Example 172], the “pKi hV1a” value is recorded as 8.9. On to `CC/C(=C1/SC(N2CCC3(CC2)OCc2ccccc23)=NC1=O)c1ccc(Cl)nc1` [Example 133, (5Z)-5-[1-(6-chloropyridin-3-yl)propylidene]-2-(1′H,3H-spiro[2-benzofuran-1,4′-piperidin]-1′-yl)-1,3-thiazol-4(5H)-one], for which the “pKi hV1a” value was 9.2. `[2H]C([2H])([2H])/C(=C1\SC(N2CCC3(CC2)OCc2ccccc23)=NC1=O)c1ccc(C)nc1` [Example 170, (5E)-5-[1-(6-methylpyridin-3-yl)(^2H3)ethylidene]-2-(1′H,3H-spiro[2-benzofuran-1,4′-piperidin]-1′-yl)-1,3-thiazol-4(5H)-one]: the “pKi hV1a” value came out at 8.0. Turning to `C/C(CS(C)(=O)=O)=C1/SC(N2CCC3(CC2)OCc2ccccc23)=NC1=O` [Example 121, (5E/Z)-5-[1-(methylsulfonyl)propan-2-ylidene]-2-(1′H,3H-spiro[2-benzofuran-1,4′-piperidin]-1′-yl)-1,3-thiazol-4(5H)-one], the “pKi hV1a” value stood at 7.0.

Take `C/C(=C1\SC(N2CCC3(CC2)OCc2ccccc23)=NC1=O)c1cccnc1Cl` [Example 84, (5E)-5-[1-(2-chloropyridin-3-yl)ethylidene]-2-(1′H,3H-spiro[2-benzofuran-1,4′-piperidin]-1′-yl)-1,3-thiazol-4(5H)-one]: the “pKi hV1a” value came to 7.7. As for `CC(C)/C(=C1\SC(N2CCC3(CC2)OC(=O)c2ccccc23)=NC1=O)c1ccc(Cl)nc1` [Example 148, 1′-{(5E)-5-[1-(6-chloropyridin-3-yl)-2-methylpropylidene]-4-oxo-4,5-dihydro-1,3-thiazol-2-yl}-3H-spiro[2-benzofuran-1,4′-piperidin]-3-one], the figure is 6.8; as for `O=C1N=C(N2CCC3(CC2)OCc2ccccc23)SC1=C(CF)CF` [Example 69, 5-(1,3-difluoropropan-2-ylidene)-2-(1′H,3H-spiro[2-benzofuran-1,4′-piperidin]-1′-yl)-1,3-thiazol-4(5H)-one], 8.0; as for `C/C(=C1/SC(N2[C@@H]3CC[C@H]2C[C@@]2(C3)OC(=O)c3ccccc32)=NC1=O)c1ccc(Cl)cc1` [Example 5, 8-{(5E/Z)-5-[1-(4-chlorophenyl)ethylidene]-4-oxo-4,5-dihydro-1,3-thiazol-2-yl}-3′H-spiro[8-azabicyclo[3.2.1]octane-3,1′-[2]benzofuran]-3′-one], 8.9. Regarding `O=C1N=C(N2CCC3(CC2)OCc2ccccc23)S/C1=C1\C=CCC1` [Example 128, (5Z)-5-(cyclopent-2-en-1-ylidene)-2-(1′H,3H-spiro[2-benzofuran-1,4′-piperidin]-1′-yl)-1,3-thiazol-4(5H)-one], the “pKi hV1a” value was found to be 7.6.

In the case of `CC(C)(C)OC(=O)NC/C(=C1/SC(N2CCC3(CC2)OCc2ccccc23)=NC1=O)c1ccccc1` [Example 159, tert-butyl {(2E/Z)-2-[4-oxo-2-(1′H,3H-spiro[2-benzofuran-1,4′-piperidin]-1′-yl)-1,3-thiazol-5(4H)-ylidene]-2-phenylethyl}carbamate], the “pKi hV1a” value came to 9.3. To `CC(=C1SC(N2CCC3(CC2)OCc2ccccc23)=NC1=O)c1c(C)noc1C` (stereo in doubt) [Example 105, (5E)-5-[1-(3,5-dimethyl-1,2-oxazol-4-yl)ethylidene]-2-(1′H,3H-spiro[2-benzofuran-1,4′-piperidin]-1′-yl)-1,3-thiazol-4(5H)-one] belongs 8.7; to `C/C(=C1/SC(N2CCC3(CC2)OCc2ccncc23)=NC1=O)c1ccc(Cl)cc1` [Example 4, (5E/Z)-5-[1-(4-chlorophenyl)ethylidene]-2-(1H,1′H-spiro[furo[3,4-c]pyridine-3,4′-piperidin]-1′-yl)-1,3-thiazol-4(5H)-one and (5Z)-5-[1-(4-chlorophenyl)ethylidene]-2-(1H,1′H-spiro[furo[3,4-c]pyridine-3,4′-piperidin]-1′-yl)-1,3-thiazol-4(5H)-one], 9.0.
